From a flash point compilation (Sun et al. 2020) come the findings set out here.

Molecules are shown by their SMILES. Counter-ions that a name gives are not always drawn.

The compound `ClCCCCl` [1,3-dichloropropane] showed a flash point of 21 °C.
Still for that read-out and setting: the result for `ClCCCCCl` [1,4-dichlorobutane] reads 43 °C; that for `ClCCCCCCl` [1,5-dichloropentane], 63 °C; that for `COCC(C)O` (centres undefined) [1-methoxy-2-propanol], 31 °C.
The same measure, in the same setting: the result for `C=CCCCCCCCCCCCC` [1-tetradecene] reads 97 °C.
The same measure, in the same setting: the result for `COCCCN` [3-methoxypropylamine] reads 23 °C; that for `CN(C)C1CCCCC1` [N,N-dimethylcyclohexylamine], 41 °C; that for `C1=CCCC1` [cyclopentene], -30 °C.
In turn, `C=C1CCCCC1` [methylenecyclohexane] returned a flash point of -2 °C.

The source holds these as a separate data set.
Compound `CCC(Cl)Cl` [1,1-dichloropropane] gave a flash point of 7 °C.
The same measure, in the same setting: the result for `ClCCCCl` [1,3-dichloropropane] reads 32 °C; that for `ClCCCCCl` [1,4-dichlorobutane], 40 °C; that for `ClCCCCCCl` [1,5-dichloropentane], 26 °C.
Still for that read-out and setting: the result for `CCCCCl` [1-chlorobutane] reads -12 °C; that for `CCCCCCCl` [1-chlorohexane], 26 °C; that for `CCCCCCCCCl` [1-chlorooctane], 63 °C.
In the case of `COCC(C)O` (centres undefined) [1-methoxy-2-propanol], the flash point came to 38 °C.
Still for that read-out and setting: the result for `C=CCCCCCCCCCCCC` [1-tetradecene] reads 110 °C; that for `CCCC(C)C` [2-methylpentane], -32 °C.
For the compound `COCCCN` [3-methoxypropylamine], the flash point amounted to 32 °C.
On the same count and under the same terms, the result for `CN(C)C1CCCCC1` [N,N-dimethylcyclohexylamine] reads 39 °C.
Compound `CC#N` [acetonitrile] had a flash point of 13 °C.
Still for that read-out and setting: the result for `C1=CCCC1` [cyclopentene] reads -0 °C.
On to `c1ccc(Cc2ccccc2)cc1` [diphenylmethane], for which the flash point was 127 °C.
`CCCCCCCCCCCCCCCCCCCC` [eicosane]: the flash point came to 169 °C.
Take `CC=O` [ethanal]: the flash point was -39 °C.
Still for that read-out and setting: the result for `CCS` [ethanethiol] reads -48 °C; that for `CC(=O)O` [ethanoic acid], 39 °C; that for `C=CC(=O)OCC` [ethyl acrylate], 9 °C.
Compound `CCCC(=O)OCC` [ethyl butyrate] came in with a flash point of 19 °C.
Same read-out and setting: the result for `CCOC(=O)C(C)C` [ethyl isobutyrate] reads 13 °C; that for `C=COCC` [ethyl vinyl ether], -45 °C.
Still for that read-out and setting: the result for `CCN` [ethylamine] reads -17 °C; that for `Fc1ccccc1` [fluorobenzene], -15 °C.
Consider `OCc1ccco1` [furfuryl alcohol], for which the flash point was 65 °C.
`CCCCCCC=O` [heptanal] registered a flash point of 41 °C.
For `CCCCCCC#N` [heptanenitrile], the flash point is 58 °C.
On the same count and under the same terms, the result for `C1CCCNCC1` [hexamethyleneimine] reads 18 °C; that for `CCCCCC=O` [hexanal], 25 °C; that for `CC(C)COC=O` [isobutyl formate], 10 °C.
Still for that read-out and setting: the result for `CC(C)C=O` [isobutyraldehyde] reads -24 °C.
On the same count and under the same terms, the result for `CC(C)C(=O)O` [isobutyric acid] reads 55 °C; that for `CC(=O)OCCC(C)C` [isopentyl acetate], 25 °C.
`CC1=CC(=O)CC(C)(C)C1` [isophorone] registered a flash point of 84 °C.
For `CC(=O)OC(C)C` [isopropyl acetate], the flash point came to 2 °C.
Still for that read-out and setting: the result for `CC(C)OC(C)C` [isopropyl ether] reads -29 °C; that for `CC(C)C1CCCCC1` [isopropylcyclohexane], 35 °C.
Still for that read-out and setting: the result for `Clc1cccc(Cl)c1` [m-dichlorobenzene] reads 63 °C; that for `CC(=O)C=C(C)C` [mesityl oxide], 25 °C; that for `Cc1cc(C)cc(C)c1` [mesitylene], 50 °C.
Still for that read-out and setting: the result for `C=C(C)C#N` [methacrylonitrile] reads 1 °C.
The compound `COC(=O)c1ccccc1` [methyl benzoate] yielded a flash point of 83 °C.
Same read-out and setting: the result for `CN=C=S` [methyl isothiocyanate] reads 32 °C; that for `COC(=O)c1ccccc1O` [methyl salicylate], 96 °C.
On the same count and under the same terms, the result for `CCC(C)OC` (centres undefined) [methyl sec-butyl ether] reads -30 °C.
Still for that read-out and setting: the result for `CCC(C)(C)OC` [methyl tert-pentyl ether] reads -11 °C; that for `CN` [methylamine], -62 °C.
Regarding `CN(CCO)CCO` [methyldiethanolamine], the flash point was 138 °C.
Same read-out and setting: the result for `C=C1CCCCC1` [methylenecyclohexane] reads -6 °C.
Still for that read-out and setting: the result for `CCCCOC(C)=O` [n-butyl acetate] reads 22 °C; that for `CCCCON=O` [n-butyl nitrite], -13 °C.
The compound `CCCC(=O)O` [n-butyric acid] came in with a flash point of 69 °C.
As to `CCCC#N` [n-butyronitrile], the flash point worked out at 16 °C.
Still for that read-out and setting: the result for `CCCCCCCCCC` [n-decane] reads 51 °C; that for `CCCOCCC` [n-propyl ether], -28 °C; that for `CCCCCCCC#N` [octanenitrile], 73 °C.
Still for that read-out and setting: the result for `CCCCCCCC(=O)Cl` [octanoyl chloride] reads 82 °C; that for `CCCCCCCCN` [octylamine], 60 °C.
`Clc1ccc(Cl)cc1` [p-dichlorobenzene] registered a flash point of 66 °C.
For the compound `CCCCCc1ccccc1` [pentylbenzene], the flash point amounted to 65 °C.
Still for that read-out and setting: the result for `O=C1OC(=O)c2ccccc21` [phthalic anhydride] reads 152 °C; that for `C1CCNCC1.Cl` [piperidine hydrochloride], 65 °C; that for `CCC=O` [propionaldehyde], -40 °C.
Still for that read-out and setting: the result for `CCCOC(=O)CCC` [propyl butyrate] reads 37 °C; that for `CCCOC=O` [propyl formate], -0 °C; that for `c1cncnc1` [pyrimidine], 31 °C.
`CCC(C)O` (centres undefined) [sec-butanol] came in with a flash point of 26 °C.
As to `CCC(C)OC(C)=O` (centres undefined) [sec-butyl acetate], the flash point stood at 16 °C.
Same read-out and setting: the result for `CC(=O)CC(=O)OC(C)(C)C` [t-butyl acetoacetate] reads 60 °C.
The same measure, in the same setting: the result for `CC(C)(C)c1ccccc1` [t-butylbenzene] reads 60 °C.
Still for that read-out and setting: the result for `CC(C)(C)C1CCCCC1` [t-butylcyclohexane] reads 42 °C; that for `CCC(C)(C)O.CCC(C)(C)O` [tert-amyl alcohol (2-methyl-2-butanol)], 20 °C.
With `CCCCN(CCCC)CCCC` [tributylamine], the flash point is 72 °C.
In turn, `CCOC(OCC)OCC` [triethoxymethane] gave a flash point of 30 °C.
Still for that read-out and setting: the result for `COC(OC)OC` [trimethoxymethane] reads 15 °C; that for `CCCCC#N` [valeronitrile], 40 °C.

The source holds these as a separate data set.
`ClCC(Cl)CCl` [1,2,3-Trichloropropane]: the flash point is 82.00 °C.
`Clc1ccc(Cl)c(Cl)c1` [1,2,4-Trichlorobenzene] gave a flash point of 99.00 °C.
Same read-out and setting: the result for `CC(O)CCO` (centres undefined) [1,3-Butylene glycol] reads 121.00 °C; that for `ClCCCCl` [1,3-Dichloropropane], 35.00 °C.
The compound `NCCCN` [1,3-Propanediamine] gave a flash point of 24.00 °C.
Compound `ClCCCCCl` [1,4-Dichlorobutane] had a flash point of 52.00 °C.
On the same count and under the same terms, the result for `OCCCCCO` [1,5-Pentanediol] reads 135.00 °C; that for `CC(O)C(C)O` (centres undefined) [2,3-Butylene glycol], 85.00 °C; that for `CC(C)=CC(C)(C)C` [2,4,4-Trimethyl-2-pentene], 2.00 °C.
Same read-out and setting: the result for `CC(=O)CC(C)=O` [2,4-Pentanedione] reads 41.00 °C; that for `Nc1cc(Cl)ccc1Cl` [2,5-Dichloroaniline], 166.00 °C.
Turning to `CCC(C=O)CC` [2-Ethyl butyraldehyde], the flash point came to 21.00 °C.
Turning to `CCCC=C(C=O)CC` [2-Ethyl-3-propyl acrolein], the flash point was determined as 68.00 °C.
In the case of `Oc1ccc2ccccc2c1` [2-Naphthol], the flash point stood at 153.00 °C.
Consider `CC(C)[N+](=O)[O-]` [2-Nitropropane], for which the flash point turned out to be 39.00 °C.
On the same count and under the same terms, the result for `CC=O` [Acetaldehyde] reads -38.00 °C; that for `CC(=O)O` [Acetic acid], 43.00 °C.
For the compound `CC(=O)OC(C)=O` [Acetic anhydride], the flash point was determined as 54.00 °C.
`CC(C)=O` [Acetone] had a flash point of -18.00 °C.
Consider `O=C(O)CCCCC(=O)O` [Adipic acid], for which the flash point stood at 191.00 °C.
The compound `N#CCCCCC#N` [Adiponitrile] yielded a flash point of 93.00 °C.
Take `C=CCBr` [Allyl bromide]: the flash point was -1.00 °C.
The compound `COc1ccccc1` [Anisole] yielded a flash point of 52.00 °C.
The same measure, in the same setting: the result for `c1ccc2cc3ccccc3cc2c1` [Anthracene] reads 121.00 °C.
The same measure, in the same setting: the result for `O=C1c2ccccc2C(=O)c2ccccc21` [Anthraquinone] reads 185.00 °C.
The same measure, in the same setting: the result for `O=Cc1ccccc1` [Benzaldehyde] reads 64.00 °C; that for `c1ccccc1` [Benzene], -11.00 °C.
In turn, `O=C(O)c1ccccc1` [Benzoic acid] showed a flash point of 121.00 °C.

This is another data set of the same source.
Regarding `CCC(Cl)Cl` [1,1-dichloropropane], the flash point is 21.00 °C.
On the same count and under the same terms, the result for `CCCCCl` [1-chlorobutane] reads -7.00 °C; that for `CCCCCCCl` [1-chlorohexane], 35.00 °C; that for `CCCCCCCCCl` [1-chlorooctane], 70.00 °C.
`CCCC(C)C` [2-methylpentane] had a flash point of -29.00 °C.
Regarding `CC#N` [acetonitrile], the flash point was 6.00 °C.
`CCCCCCC=O` [heptanal] yielded a flash point of 35.00 °C.
Take `CCCCCC=O` [hexanal]: the flash point came to 32.00 °C.
On the same count and under the same terms, the result for `CCCCCCCC(=O)Cl` [octanoyl chloride] reads 81.00 °C; that for `CCCOC=O` [propyl formate], -3.00 °C.
